Source: article PMC9024521, “4-Heteroaryl Substituted Amino-3,5-Dicyanopyridines as New Adenosine Receptor Ligands: Novel Insights on Structure-Activity Relationships and Perspectives” (Pharmaceuticals, 2022)

Key:
hA2B AR = target: T1, hA2B AR (Homo sapiens, UniProt P29275); assay: cAMP assay in CHO cells expressing hA2B AR (stimulation of cAMP production); type: cell-based; details: for Emax at 1 µM: CHO, 1 µM compound, in comparison with NECA (1 µM = 100%), read-out: Efficacy hA2B (cAMP assay) (converted); for EC50: hA2B CHO cells, mean ± SEM of four assays
T1 construct: host or cells: CHO cells
T1 sequence (P29275 1-332): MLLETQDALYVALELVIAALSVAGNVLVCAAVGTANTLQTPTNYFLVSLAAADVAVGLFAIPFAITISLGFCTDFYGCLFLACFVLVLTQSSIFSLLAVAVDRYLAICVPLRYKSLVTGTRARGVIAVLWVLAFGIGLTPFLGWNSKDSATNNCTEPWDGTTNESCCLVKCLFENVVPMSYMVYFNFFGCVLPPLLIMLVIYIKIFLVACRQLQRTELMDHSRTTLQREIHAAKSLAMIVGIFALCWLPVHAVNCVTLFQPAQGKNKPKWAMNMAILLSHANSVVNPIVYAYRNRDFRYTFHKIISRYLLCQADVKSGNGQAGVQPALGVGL
Protocol: The amino-3,5-dicyanopyridines 1–21 were tested for their affinity at hA1, hA2A and hA3 ARs, stably transfected in Chinese Hamster Ovary (CHO) cells. Moreover, they were also studied as hA2B agonists by evaluating their stimulatory effect on cAMP production in CHO cells, stably expressing the hA2B AR. […] Due to their interesting pan profile, both compounds 1 and 5 were evaluated as AR agonists also at the hA2A and hA3 subtypes.
CHO cells transfected with hA1, hA2A, hA2B and hA3 ARs (Perkin Elmer, Boston, MA, USA) were grown adherently and maintained in Dulbecco’s modified Eagle’s medium with nutrient mixture F12, containing 10% fetal calf serum, penicillin (100 U/mL), streptomycin (100 μg/mL), L-glutamine (2 mM) and geneticine (G418; 0.2 mg/mL), at 37 °C, in 5% CO2/95% air, until their use in cAMP assays. For membrane preparation, the culture medium was removed, and the cells were washed with phosphate-buffered saline and scraped off T75 flasks in ice-cold hypotonic buffer (5 mM Tris HCl, 1 mM EDTA, pH 7.4). The cell suspension was homogenized with a Polytron, centrifuged for 30 min at 40,000× g, at 4 °C, and the resulting membrane pellet was used for competition binding experiments.
CHO cells transfected with hAR subtypes were washed with phosphate-buffered saline, detached with tripsine and centrifuged for 10 min at 200× g. Cells were seeded in a 96-well white half-area microplate (Perkin Elmer, Boston, USA) in a stimulation buffer composed of Hank Balanced Salt Solution, 5 mM HEPES, 0.5 mM Ro 20–1724, 0.1% BSA. The cAMP levels were then quantified by using the AlphaScreen cAMP Detection Kit (Perkin Elmer, Boston, MA, USA), following the manufacturer’s instructions. At the end of the experiments, the plates were read with a Perkin Elmer EnSight Multimode Plate Reader.

Row | Emax at 1 µM (hA2B AR) [%] | EC50 (hA2B AR) [nM] | melting point [°C] | SMILES
1 | 52 | 1.4 ± 0.2 |  | N#Cc1c(N)nc(SCc2ncc[nH]2)c(C#N)c1-c1ccco1 [Compound 1, 2-Amino-4-(furan-2-yl)-6-[(1H-imidazol-2-ylmethyl)sulfanyl]pyridine-3,5-dicarbonitrile]
2 | 73 | 1.12 ± 0.11 | 246 to 248 | N#Cc1c(N)nc(SCc2ncc[nH]2)c(C#N)c1-c1cccs1 [Compound 5, 2-Amino-6-[(1H-imidazol-2-ylmethyl)sulfanyl]-4-(thiophen-2-yl)pyridine-3,5-dicarbonitrile]
